Literature values in US20240156825A1, “USE OF SELECTIVE VEGFR2 AND FGFR1 INHIBITORS” (Fountain Therapeutics Inc., priority 2022, published 2024).
pIC50: −log10 of the molar value. Read-outs that look alike come from different tables or passages of the source.

Test system: any gene target
Conditions: read-out: Min IC50_μM, cited from earlier work
[1] = next lowest IC50 value to any gene target
[2] = lowest reported IC50 to any gene target
[3] = next lowest IC50 value to any gene target, Table 3
[4] = Table 2, lowest reported IC50 to any gene target

Row | Compound | pIC50 [1] | pIC50 [4] | further results
1 | Clc1ccc(Nc2nnc(Cc3ccncc3)c3ccccc23)cc1 [compound 151193] | 7.11 | – | –
2 | Clc1ccc(Nc2nnc(Cc3ccncc3)c3ccccc23)cc1 [compound 151194] | 7.27 | – | –
3 | CNC(=O)c1cc(Oc2ccc(NC(=O)Nc3ccc(Cl)c(C(F)(F)F)c3)cc2)ccn1 [compound 216239] | 9.70 | – | –
4 | COc1cc2c(Nc3ccc(Br)cc3F)ncnc2cc1OCC1CCN(C)CC1 [compound 3081361] | 7.96 | – | –
5 | CN1CCN(CCCNc2ncc3cc(-c4c(Cl)cccc4Cl)c(NC(=O)NC4CCCCC4)nc3n2)CC1 [compound 5328158] | – | – | pIC50 [2]: 7.51
6 | COc1cc2ncnc(Nc3ccc(Cl)cc3F)c2cc1OC [compound 5329006] | 6.00 | – | –
7 | COc1cc(OC)cc(-c2cc3cnc(NCCCCCN4CCOCC4)cc3nc2NC(=O)NC(C)(C)C)c1 [compound 5330134] | – | – | pIC50 [2]: 9.30
8 | O=C(Nc1cccc(C(F)(F)F)c1)c1ccccc1NCc1ccncc1 [compound 6398883] | 7.74 | – | –
9 | CNC(=O)c1ccccc1Sc1ccc2c(/C=C/c3ccccn3)n[nH]c2c1 [compound 6450551] | – | – | pIC50 [3]: 10.00
10 | Cc1cccc(NC(=O)Nc2ccc(-c3csc4ncnc(N)c34)cc2)c1 [compound 6539985] | 8.70 | – | –
11 | CCCNC(=O)Nc1ccc(Oc2ncnc3cc(OC)c(OC)cc23)cc1Cl [compound 9549295] | – | – | pIC50 [3]: 9.00
12 | O=C(Nc1ccc(Cl)cc1)c1ccccc1NCc1ccncc1 [compound 9797919] | 6.74 | – | –
13 | COc1cc2nccc(Oc3ccc(NC(=O)NC4CC4)c(Cl)c3)c2cc1C(N)=O [compound 9823820] | 8.28 | – | –
14 | COC(=O)C1=C(c2ccccc2)c2ccccc2C1=O [compound 10015651] | – | – | pIC50 [2]: 5.29
15 | Cc1ccc(Nc2nccc(N(C)c3ccc4c(C)n(C)nc4c3)n2)cc1S(N)(=O)=O [compound 10113978] | 8.00 | – | –
16 | COc1cc2nccc(Oc3ccc4c(C(N)=O)cccc4c3)c2cc1C(N)=O [compound 11211389] | 6.41 | – | –
17 | O=C(NCc1ccccc1)c1cc2c(-c3ccccc3)n[nH]c2s1 [compound 11359538] | 5.70 | – | –
18 | COc1ccc(-c2ccc(NC(=O)Nc3cccc(C(F)(F)F)c3)cc2)c2c(N)noc12 [compound 11374110] | 7.80 | – | –
19 | COc1ccc(-c2ccc(NC(=O)Nc3cc(C)ccc3F)cc2)c2c(N)noc12 [compound 11429654] | 7.62 | – | –
20 | COc1ccc(-c2ccc(NC(=O)Nc3cccc(Cl)c3)cc2)c2c(N)noc12 [compound 11429729] | 7.52 | – | –
21 | COc1cc2nccc(Oc3ccc4c(C(=O)NC5CC5)cccc4c3)c2cc1OC [compound 11441375] | 7.57 | – | –
22 | CONC(=O)c1cc(Nc2ncnn3cc(-c4nnc(C(C)C)o4)c(C(C)C)c23)c(F)cc1F [compound 11442803] | – | – | pIC50 [2]: 9.00
23 | CCNC(=O)c1cccc2cc(Oc3ccnc4cc(OC)c(OC)cc34)ccc12 [compound 11486459] | 7.34 | – | –
24 | Nc1[nH]nc2nccc(-c3ccc(NC(=O)Nc4cccc(C(F)(F)F)c4)cc3)c12 [compound 11495270] | 8.70 | – | –
25 | Cc1cccc(NC(=O)Nc2ccc(-c3cncc4c3c(N)nn4C)cc2)c1 [compound 11588815] | 8.70 | – | –

Row | Compound | pIC50 [1] | pIC50 [4] | further results
26 | CNC(=O)c1cccc2cc(Oc3ccnc4cc(OC)c(OC)cc34)ccc12 [compound 11749561] | 6.96 | – | –
27 | CCNC(=O)Nc1ccc(Oc2ncnc(N)c2/C=N/OC)cc1Cl [compound 16742063] | 6.74 | – | –
28 | COc1cc2nccc(Oc3ccc4c(C(=O)Nc5ccc(Cl)cc5)cccc4c3)c2cc1OC [compound 24757938] | 9.30 | – | –
29 | COc1cc2ncnc(Oc3ccc4c(C(N)=O)cccc4c3)c2cc1OC [compound 24823094] | 6.17 | – | –
30 | COc1ccc2c(Oc3ccc4c(C(N)=O)cccc4c3)ccnc2c1 [compound 24823095] | 6.89 | – | –
31 | C[C@@H](Nc1ncnc2[nH]c(-c3ccc(CNCCCCCCCC(=O)NO)cc3)cc12)c1ccccc1 [compound 24900644] | 7.00 | – | –
32 | COc1cc2nccc(Oc3ccc(NC(=O)C4(C(=O)Nc5ccc(F)cc5)CC4)cc3)c2cc1OC [compound 25102847] | 8.89 | – | –
33 | COc1cc(OC)cc(-c2cc3cnc(N)nc3n(C)c2=O)c1 [compound 44294299] | – | – | pIC50 [2]: 6.90
34 | Cc1n[nH]c2sc(C(=O)NCc3ccccc3)cc12 [compound 44405941] | 4.80 | – | –
35 | Cc1n[nH]c2sc(C(N)=O)c(NC(=O)c3ccccc3Cl)c12 [compound 44405999] | 5.05 | – | –
36 | O=C(NC1CCCCC1)c1cc2c(-c3ccccc3)n[nH]c2s1 [compound 44406074] | 4.96 | – | –
37 | Nc1ncnc2snc(-c3ccc(NC(=O)Nc4cc(C(F)(F)F)ccc4F)cc3)c12 [compound 44414779] | 7.66 | – | –
38 | COc1ccc(N(C)c2ncnc3occ(C)c23)cc1 [compound 44555430] | 7.91 | – | –
39 | C[C@@H](Oc1ccc2[nH]nc(/C=C/c3cnn(CCO)c3)c2c1)c1c(Cl)cncc1Cl [compound 46944259] | – | 8.59 | –
40 | COc1cc(CCc2cc(NC(=O)c3ccc(N4C[C@@H](C)N[C@@H](C)C4)cc3)n[nH]2)cc(OC)c1 [compound 51039095] | – | 9.40 | –
41 | Oc1ccc(-c2cnn3cc(-c4ccc(OCCN5CCOCC5)cc4)cnc23)cc1O [compound 52944268] | – | – | pIC50 [3]: 9.00
42 | COc1ccc(OC)c(N(CCNC(C)C)c2ccc3ncc(-c4cnn(C)c4)nc3c2)c1 [compound 54591211] | – | 6.82 | –
43 | c1ccc(-c2cnc3cncc(Nc4ccc(N5CCCCC5)cc4)c3n2)cc1 [compound 57332840] | 5.69 | – | –
44 | COc1ccc(-c2cnc3c(-c4cn[nH]c4)cnn3c2)cc1 [compound 57339386] | 7.80 | – | –
45 | COc1cc2c(Nc3ccc(Cl)c(Cl)c3F)ncnc2cc1OC[C@@H]1CN2CCCC[C@H]2C(=O)N1 [compound 57802612] | – | – | pIC50 [3]: 7.30
46 | COc1cc2c(Nc3ccc(Cl)c(Cl)c3F)ncnc2cc1OC[C@@H]1CN2CCCC[C@@H]2C(=O)N1 [compound 57802634] | – | – | pIC50 [3]: 7.30
47 | COc1cc(OC)cc(N(CC#Cc2cccc(N)n2)c2ccc3ncc(-c4cnn(C)c4)nc3c2)c1 [compound 67466417] | – | 7.37 | –
48 | COc1cc(OC)cc(N(CC#Cc2cc(C)ccn2)c2ccc3ncc(-c4cnn(C)c4)nc3c2)c1 [compound 67466880] | – | – | pIC50 [2]: 8.03
49 | COc1cc(OC)cc(N(CC#Cc2nccc(OC)n2)c2ccc3ncc(-c4cnn(C)c4)nc3c2)c1 [compound 67467703] | – | 8.13 | –
50 | CNCCN(c1cc(OC)cc(OC)c1)c1ccc2ncc(-c3cnn(CC(=O)NC)c3)nc2c1 [compound 68208748] | – | 8.59 | –

Row | Compound | pIC50 [1] | pIC50 [4] | further results
51 | COc1cc(OC)cc(N(CCNCC2CC2)c2ccc3ncc(-c4cnn(C)c4)nc3c2)c1 [compound 68208778] | – | 8.52 | –
52 | COc1cc(OC)cc(N(C[C@@H]2CCCN2)c2ccc3ncc(-c4cnn(C)c4)nc3c2)c1 [compound 68208803] | – | 8.50 | –
53 | COc1cc(OC)cc(N(Cc2ccccc2Cl)c2ccc3ncc(-c4cnn(C)c4)nc3c2)c1 [compound 68208812] | – | 7.21 | –
54 | COc1cc(OC)cc(N(CCCN)c2ccc3ncc(-c4cn[nH]c4)nc3c2)c1 [compound 68208813] | – | 8.93 | –
55 | CCN(CC)CCN(c1cc(OC)cc(OC)c1)c1ccc2ncc(-c3cnn(C)c3)nc2c1 [compound 68208850] | – | 8.52 | –
56 | COc1cc(OC)cc(N(c2ccc3ncc(-c4cnn(C)c4)nc3c2)C(C)CNC(C)C)c1 (stereo not drawn) [compound 68208877] | – | 8.31 | –
57 | COc1cc(OC)cc(N(CCN2CCC(CCO)CC2)c2ccc3ncc(-c4cnn(C)c4)nc3c2)c1 [compound 68208907] | – | 8.54 | –
58 | COc1cc(OC)cc(N(CC#Cc2cccc(CO)n2)c2ccc3ncc(-c4cnn(C)c4)nc3c2)c1 [compound 68208920] | – | 7.33 | –
59 | COc1cc(OC)cc(N(CCCc2cc(C)ccn2)c2ccc3ncc(-c4cnn(C)c4)nc3c2)c1 [compound 68208924] | – | – | pIC50 [2]: 7.97
60 | CCn1cc(-c2cnc3ccc(N(CCNC)c4cc(OC)cc(OC)c4)cc3n2)cn1 [compound 68208927] | – | 8.45 | –
61 | COc1cc(OC)cc(N(Cc2ncccn2)c2ccc3ncc(-c4cnn(C)c4)nc3c2)c1 [compound 68208969] | – | 8.09 | –
62 | COc1cc(OC)cc(N(CCNC(C)C)c2ccc3ncc(-c4cnn(C5CCNCC5)c4)nc3c2)c1 [compound 68208989] | – | 8.54 | –
63 | COc1cc(OC)cc(N(CCCN2CCC(N)C2)c2ccc3ncc(-c4cnn(C)c4)nc3c2)c1 (stereo not drawn) [compound 68209028] | – | 8.85 | –
64 | COc1cc(OC)cc(N(CCN2CCCCC2)c2ccc3ncc(-c4cnn(C)c4)nc3c2)c1 [compound 68209029] | – | 8.65 | –
65 | COc1cc(OC)cc(N(CCN(C)C(C)C)c2ccc3ncc(-c4cnn(C)c4)nc3c2)c1 [compound 68209043] | – | 8.41 | –
66 | COc1cc(OC)cc(N(CCN2CCC(N(C)C)CC2)c2ccc3ncc(-c4cnn(C)c4)nc3c2)c1 [compound 68209057] | – | – | pIC50 [2]: 8.29
67 | COc1cc(OC)cc(N(CCN2CCC(C(C)(C)O)CC2)c2ccc3ncc(-c4cnn(C)c4)nc3c2)c1 [compound 68209085] | – | – | pIC50 [2]: 8.41
68 | CNC[C@H](O)CN(c1cc(OC)cc(OC)c1)c1ccc2ncc(-c3cnn(C)c3)nc2c1 [compound 68209125] | – | – | pIC50 [2]: 8.75
69 | COc1cc(OC)cc(N(CCNC(C)C)c2ccc3ncc(-c4cnn(C)c4C)nc3c2)c1 [compound 68209154] | – | 8.33 | –
70 | CCOC(=O)C1CCN(CCN(c2cc(OC)cc(OC)c2)c2ccc3ncc(-c4cnn(C)c4)nc3c2)CC1 [compound 68209310] | – | – | pIC50 [2]: 8.47
71 | COc1cc(OC)cc(N(CCNCCO)c2ccc3ncc(-c4cnn(C)c4)nc3c2)c1 [compound 68209464] | – | 8.65 | –
72 | COc1cc(OC)cc(N(CC(O)CN2CCCCC2)c2ccc3ncc(-c4cnn(C)c4)nc3c2)c1 (stereo not drawn) [compound 68209482] | – | – | pIC50 [2]: 8.53
73 | COc1cc(N(CCNC(C)C)c2ccc3ncc(-c4cnn(C)c4)nc3c2)cc2c1OCO2 [compound 68209505] | – | 8.54 | –
74 | COc1cc(OC)c(Cl)c(N(CCNC(C)C)c2ccc3ncc(-c4cnn(C)c4)nc3c2)c1Cl [compound 88888615] | – | 8.04 | –
75 | COc1cc(OC)cc(N(CCNC(C)C)c2ccc3ncc(-c4cnn(C)c4)nc3c2)c1 [compound 89447047] | – | 8.76 | –
